Data from ChEMBL document CHEMBL4651402, “Screening of ~5500 FDA-approved drugs and clinical candidates for anti-SARS-CoV-2 activity” (2021).

System: SARS-CoV-2
Experiment: microbe, parasite or virus in culture
Conditions: Severe acute respiratory syndrome coronavirus 2, Vero C1008, 48 h

| Compound | IC50 [µM] | IC50 (read-out: pIC50 (converted)) [µM] |
| --- | --- | --- |
| CC(C)(O)[C@@H]1CC[C@](C)(C2[C@@H](O)C[C@@]3(C)[C@H]4C[C@H](O[C@H]5OC(CO)[C@H](O)C(O)C5O)[C@H]5C(C)(C)C(O[C@@H]6OC[C@@H](O)C(O)C6O)CC[C@@]56C[C@@]46CC[C@]23C)O1 (stereo not given in full) | > 20 | > 20 |
| COC(=O)Nc1nc2cc(C(=O)c3cccs3)ccc2[nH]1 [NOCODAZOLE] | > 20 | > 20 |
| C[C@@H](O[C@H]1OCCN(Cc2n[nH]c(=O)[nH]2)[C@H]1c1ccc(F)cc1)c1cc(C(F)(F)F)cc(C(F)(F)F)c1 [APREPITANT] | > 20 | > 20 |
| N[C@@H]1c2cccnc2[C@H](OC(=O)N2CCC(n3c(=O)[nH]c4ncccc43)CC2)CC[C@H]1c1cccc(F)c1F [RIMEGEPANT] | > 20 | > 20 |
| C/N=C(/NC#N)NCCSCc1csc(NC(=N)N)n1 [TIOTIDINE] | > 20 | > 20 |
| C[C@@H](N)c1ccc(C(=O)Nc2ccnc3[nH]ccc23)cc1 [Y-39983] | > 20 | > 20 |
| COc1ccc(NS(=O)(=O)c2ccc(N)cc2)nn1 [SULFAMETHOXYPYRIDAZINE] | > 20 | > 20 |
| CC(O)(CS(=O)(=O)c1ccc(F)cc1)C(=O)Nc1ccc(C#N)c(C(F)(F)F)c1 (stereo not given) [BICALUTAMIDE] | > 20 | > 20 |
| C[C@@H]1C[C@H]2[C@@H]3CCC4=CC(=O)C=C[C@]4(C)[C@@]3(F)[C@@H](O)C[C@]2(C)[C@H]1C(=O)CO [DESOXIMETASONE] | > 20 | > 20 |
| O=C(NCC(O)CO)c1c(I)c(C(=O)NCC(O)CO)c(I)c(N(CCO)C(=O)CO)c1I (stereo not given) [IOVERSOL] | > 20 | > 20 |
| N[C@@H](C(=O)N[C@@H]1C(=O)N2C(C(=O)O)=C(Cl)CC[C@H]12)c1ccccc1 [LORACARBEF ANHYDROUS] | > 20 | > 20 |
| CC(C)(C)C(=O)NNCc1ccccc1 [PIVHYDRAZINE] | > 20 | > 20 |
| CO[C@H]1C[C@@H]2CC[C@@H](C)[C@@](O)(O2)C(=O)C(=O)N2CCCC[C@H]2C(=O)O[C@H]([C@H](C)C[C@@H]2CC[C@H](n3cnnn3)[C@H](OC)C2)CC(=O)[C@H](C)/C=C(/C)[C@@H](O)[C@@H](OC)C(=O)[C@H](C)C[C@H](C)\C=C/C=C\C=C/1C | > 20 | > 20 |
| CC(C)CCCC(C)NC(C)C (stereo not given) [IPROHEPTINE] | > 20 | > 20 |
| COc1ccccc1N1CCN(CC(O)COc2cccc3ccccc23)CC1 (stereo not given) [NAFTOPIDIL] | > 20 | > 20 |
| C/C=C(\C)C(=O)O[C@@H]1c2c(ccc3ccc(=O)oc23)OC(C)(C)[C@@H]1OC(C)=O [PTERYXIN] | > 20 | > 20 |
| Nc1ncc([N+](=O)[O-])s1 | > 20 | > 20 |
| CN(C)CC[C@@H](c1ccc(Cl)cc1)c1ccccn1 [DEXCHLORPHENIRAMINE] | > 20 | > 20 |

| Compound | IC50 [µM] | IC50 (read-out: pIC50 (converted)) [µM] |
| --- | --- | --- |
| Cn1cnc2c1c(=O)[nH]c(=O)n2C [THEOBROMINE] | > 20 | > 20 |
| CC1(CN2CCC(n3c(=O)[nH]c4ccccc43)CC2)OCc2ccccc2-n2cccc21 (stereo not given) [ZALDARIDE] | > 20 | > 20 |
| O=[N+]([O-])c1c(Cl)cccc1-c1c[nH]cc1Cl [PYRROLNITRIN] | > 20 | > 20 |
| CC[C@H](OC(C)=O)C(C[C@@H](C)N(C)C)(c1ccccc1)c1ccccc1 [BETACETYLMETHADOL] | > 20 | > 20 |
| COc1ccccc1-c1coc2cc(O)ccc2c1=O | > 20 | > 20 |
| C[N+](C)(C)CC[N+]1(C)Cc2c(Cl)c(Cl)c(Cl)c(Cl)c2C1 [CHLORISONDAMINE] | > 20 | > 20 |
| Cc1cc(=O)n(-c2ccccc2)n1C [ANTIPYRINE] | > 20 | > 20 |
| COc1ccc(-c2nnc(C)nc2-c2ccc(OC)cc2)cc1 [ANITRAZAFEN] | > 20 | > 20 |
| CC(O)(P(=O)(O)O)P(=O)(O)O [ETIDRONIC ACID] | > 20 | > 20 |
| CO/N=C(\C(=O)N[C@@H]1C(=O)N2C(C(=O)O)=C(CSc3nc(=O)c(O)nn3C)CS[C@H]12)c1csc(N)n1 [CEFTRIAXONE] | > 20 | > 20 |
| NC(=O)c1[nH]cnc1N | > 20 | > 20 |
| CC1CNc2c(cccc2S(=O)(=O)N[C@@H](CCCNC(=N)N)C(=O)N2CC[C@@H](C)C[C@@H]2C(=O)O)C1 (stereo not given in full) [ARGATROBAN] | > 20 | > 20 |
| CCn1cc(C(=O)O)c(=O)c2cc(F)c(N3CCN(C)CC3)cc21 [PEFLOXACIN] | > 20 | > 20 |
| Cc1c(-c2c(F)cc(C(N)=O)c3[nH]c4c(c23)CC[C@H](C(C)(C)O)C4)cccc1-n1c(=O)c2cccc(F)c2n(C)c1=O [BMS-986142] | > 20 | > 20 |
| CC(C)(C)NCC(O)COc1cccc2c1CC(O)C(O)C2 (stereo not given) [NADOLOL] | > 20 | > 20 |
| COc1ccc(-n2[nH]c(=O)c3[nH]c4cc(Cl)ccc4c(=O)c3c2=O)c(C)c1 | > 20 | > 20 |
| O=C(O)CCc1nc2ccccc2[nH]1 [PROCODAZOLE] | > 20 | > 20 |
